The results in this text go back to US12653190B2, “Heteroaryl-triazole compounds as pesticides” (Bayer Aktiengesellschaft, priority 2020, dated 2026).

Common to all, as to assay type: in vivo
Test [1] concerns Rhipicephalus (Boophilus) microplus larvae (strain Parkhurst, resistant against synthetic pyrethroids). Kind of test: Rhipicephalus (Boophilus) microplus in-vitro contact test, larval cattle tick. The conditions noted are these: 5 μg/cm^2 (=500 g/ha), after 48 hours, read-out: efficacy (larvae dead or moribund). Put shortly:
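Acetone solutions coated onto glass tube walls, 900 ppm giving 5 μg/cm^2; 20–50 larvae per tube after solvent evaporation. Incubated 48 h at 27 °C, 85% relative humidity; efficacy from negative geotaxis, 100% meaning all larvae dead or moribund.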

Test [2] concerns adult mosquitoes Culex quinquefasciatus strain P00. Kind of test: Culex quinquefasciatus test (CULXFA surface treatment & contact assay). The conditions noted are these: surface concentration 20 mg/m^2, 30 minutes exposure, 24 hours after contact, read-out: efficacy (mortality). Put shortly: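 Compound dissolved at 2 mg/ml in acetone with 2000 ppm rapeseed oil methyl ester, pipetted onto glazed tile and acetone evaporated. Adult Culex quinquefasciatus strain P00 exposed to dried surface for 30 minutes; percent mortality scored 24 hours after contact.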

Test [3] relates to adult flies Musca domestica strain WHO-N. Nature of the test: Musca domestica test (MUSCDO surface treatment & contact assay). The conditions noted are these: surface concentration 4 mg/m^2, 30 minutes exposure, 24 hours after contact, read-out: efficacy (mortality). Put shortly: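 Compound dissolved in acetone (2 mg/ml) with 2000 ppm rapeseed oil methyl ester and dried onto glazed tiles. Adult WHO-N strain flies were held on the treated surface for 30 minutes, with % mortality scored 24 hours after contact.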

Test [4] has as its system adult unfed cat fleas (Ctenocephalides felis). Nature of the test: Ctenocephalides felis oral test. The conditions noted are these: 48 h, 100 ppm in cattle blood, after 2 days. The method in brief: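 About 20 adult unfed fleas feed through parafilm on cattle blood spiked with compound (DMSO stock diluted in blood); blood held at 37° C., fleas at room temperature. Mortality (%) scored after 2 days, 100% meaning all fleas killed.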

Test [5] concerns adult cat fleas (Ctenocephalides felis). Kind of test: Ctenocephalides felis in-vitro contact test, adult cat flea. The conditions noted are these: 5 μg/cm^2 (=500 g/ha), after 48 hours, read-out: efficacy (fleas dead or moribund). The method in brief:
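Compound in acetone coated onto inner walls of glass tubes (900 ppm solution giving 5 μg/cm^2); after drying, 5-10 adult fleas added and kept at room temperature. At 48 h, fleas placed on 45-50 °C plate ≤5 min; immotile or uncoordinated ones scored dead/moribund; efficacy as % dead/moribund.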

Test [6] relates to fall armyworm larvae (Spodoptera frugiperda). Nature of the test: Spodoptera frugiperda spray test. Particulars: in Zea mays, 168 h. Put shortly: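 Maize leaf sections were sprayed with compound in acetone/dimethylformamide diluted in water with 1000 ppm emulsifier, dried, then infested with larvae. Mortality in % was scored after 7 days, 100% meaning all caterpillars killed.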

Test [7] relates to green peach aphid (Myzus persicae). Nature of the test: Myzus persicae oral test. Particulars: 120 h, 4 ppm, after 5 days. As to the method:
• Solvent: 100 parts by weight acetone
To produce a suitable preparation of active compound, 1 part by weight of active compound is mixed with the stated amount of solvent, and the concentrate is diluted with water to the desired concentration.
50 μL compound solution is filled in microtiter plates and 150 μL IPL41 insect medium (33%+15% sugar) is added to obtain a total volume of 200 μL per well. Afterwards the plates are sealed with parafilm through which a mixed population of the green peach aphid (Myzus persicae) can suck on the compound preparation.
After 5 days mortality in % is determined. 100% means all aphids have been killed and 0% means none of the aphids have been killed.

The test system of test [8] is adult engorged female ticks (Rhipicephalus microplus). Nature of the test: Rhipicephalus (Boophilus) microplus injection test. The conditions noted are these: 168 h, egg deposition monitored after 7 days, read-out: efficacy (infertile eggs). Put shortly:
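Five adult engorged female ticks each injected with 1 μL of DMSO compound solution into the abdomen, then kept in a climate chamber. Fertile egg deposition assessed after 7 days, with hatching followed to about 42 days; efficacy 100% means all eggs infertile, 0% all fertile.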

As to `C[C@H](NC(=O)c1cc(Cl)cc(OS(C)(=O)=O)c1)c1ncnn1-c1ccc(C#N)cn1` [Example I-46], the pest or weed control at 5 µg/cm2, 5 µg/cm2 in test [1] and in test [5] was 100% each time. In test [2], the mortality (in general, the share of the test organisms that died) at 20 mg/m2 fell in the range of 80 to 100%. Besides, the mortality at 4 mg/m2 in test [3] fell in the range of 80 to 100%. Also, the mortality at 100 ppm in test [4] was 100%. The same molecule yielded a mortality at 100 g/ha in test [6] of 100%. In test [7], this molecule came in with a mortality at 4 ppm of 100%. In addition, the pest or weed control at 4 µg/tick in test [8] (4 μg/tick injected) came to 100%. The pest or weed control at 20 µg/tick in test [8] (20 μg/tick injected) amounted to 100%.
